Source: US20080009418A1, “Selective Inhibitors” (Alchemia LTD., priority 2004, published 2008)

Experiments:
Human opioid (ORL1) = target: T1, Human opioid (ORL1) (Homo sapiens, UniProt P41146); assay: Radioligand binding, human opioid ORL1 membranes, FlashPlate, [125I]-Nociceptin; settings: compound at 10 μM; for A10: inhibition of radioligand binding: [125I]-Nociceptin
T1 construct: purchased Perkin Elmer Biosignal
Outline: (§1)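 Cloned human receptor membranes were coated onto FlashPlate wells and incubated with radioligand and compound (added from a 0.5 mM DMSO daughter plate) for 1 hour at room temperature in the dark. Scintillation counting gave percent inhibition, with DMSO defining total and reference ligand defining non-specific binding.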

Human κ-Opioid (KOP) = target: T2, Human κ-Opioid (KOP) (Homo sapiens, UniProt P41145); assay: Radioligand binding, human κ-opioid (KOP) membranes, filtration, [3H]-Diprenorphine; settings: compound at 10 μM; for A2: inhibition of radioligand binding: [3H]-Diprenorphine; for A2 radioligand binding inhibition: human κ-opioid (KOP) membranes
T2 construct: purchased Perkin Elmer Biosignal
Outline: (§2)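 Membranes from cloned human receptors were incubated with compound and radioligand for 1 hour at room temperature. Bound ligand was collected on 0.3% PEI-soaked filters, washed with cold 50 mM Tris-HCl pH 7.4, and counted by scintillation. Percent inhibition was computed against DMSO totals and reference-ligand nonspecific wells.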

Human Melanocortin (MC4) = target: T3, Human Melanocortin (MC4) (Homo sapiens, UniProt P32245); assay: Radioligand binding, human melanocortin MC4 membranes, FlashPlate, [125I]-NDP-αMSH; settings: compound at 10 μM; for A4: inhibition of radioligand binding: [125I]-NDP-αMSH; for A4 radioligand binding inhibition: human melanocortin MC4 membranes
T3 construct: purchased Perkin Elmer Biosignal
Outline: as §1

Human δ-opioid (DOP) = target: T4, Human δ-opioid (DOP) (Homo sapiens, UniProt P41143); assay: Radioligand binding, human δ-opioid (DOP) membranes, FlashPlate, [3H]-Bremazocine; settings: compound at 10 μM; for A1: inhibition of radioligand binding: [3H]-Bremazocine; for A1 radioligand binding inhibition: human δ-opioid (DOP) membranes
T4 construct: purchased Perkin Elmer Biosignal
Outline: as §1

Mouse urotensin (mUR2) = target: T5, Mouse urotensin (mUR2) (Mus musculus, UniProt Q8VIH9); assay: Radioligand binding, mouse urotensin mUR2 membranes, FlashPlate, [125I]-Urotensin II; settings: compound at 10 μM; for A11: inhibition of radioligand binding: [125I]-Urotensin II; for A11 radioligand binding inhibition: mouse urotensin mUR2 membranes
T5 construct: purchased Perkin Elmer Biosignal
T5 sequence (Q8VIH9 1-385): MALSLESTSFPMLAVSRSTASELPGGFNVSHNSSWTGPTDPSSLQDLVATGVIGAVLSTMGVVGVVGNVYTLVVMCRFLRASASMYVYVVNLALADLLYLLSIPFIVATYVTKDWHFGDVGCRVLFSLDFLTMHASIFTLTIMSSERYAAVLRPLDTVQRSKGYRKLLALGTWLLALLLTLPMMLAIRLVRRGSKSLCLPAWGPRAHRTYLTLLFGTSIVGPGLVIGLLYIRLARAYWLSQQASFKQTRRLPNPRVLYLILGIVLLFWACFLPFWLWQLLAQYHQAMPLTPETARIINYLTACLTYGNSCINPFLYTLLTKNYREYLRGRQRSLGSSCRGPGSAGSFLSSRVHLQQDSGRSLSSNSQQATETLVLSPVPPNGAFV
Outline: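 Cloned mouse urotensin (mUR2) receptor membranes from Perkin Elmer Biosignal were immobilized in FlashPlate microplates using a proprietary coating. Each well got 19.5 μl buffer, then 0.5 μl of DMSO, reference ligand, or compound. Adding 5 μl of [125I]-Urotensin II, diluted to 5× final concentration in binding buffer, started binding. Plates were sealed with TopSeal-A and incubated 1 hour at room temperature in the dark. Wells were counted for 30 seconds each on a TopCount after a 60-second delay, and percentage inhibition was calculated.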

Human neurokinin (NK1) = target: T6, Human neurokinin (NK1) (Homo sapiens, UniProt P25103); assay: Radioligand binding, human neurokinin NK1 membranes, filtration, [125I]-Substance P; settings: compound at 10 μM; for A8: inhibition of radioligand binding: [125I]-Substance P; for A8 radioligand binding inhibition: human neurokinin NK1 membranes
T6 construct: purchased Perkin Elmer Biosignal
Outline: as §2

Human melanocortin (MC5) = target: T7, Human melanocortin (MC5) (Homo sapiens, UniProt P33032); assay: Radioligand binding, human melanocortin MC5 membranes, FlashPlate, [125I]-NDP-αMSH; settings: compound at 10 μM; for A5: inhibition of radioligand binding: [125I]-NDP-αMSH; for A5 radioligand binding inhibition: human melanocortin MC5 membranes
T7 construct: purchased Perkin Elmer Biosignal
Outline: as §1

[1] = target: T8, Human neuropeptide Y (NPY-Y1) (Homo sapiens, UniProt P25929); assay: Radioligand binding, human neuropeptide Y NPY-Y1 membranes, FlashPlate, [125I]-PYY; settings: compound at 10 μM; for A9: inhibition of radioligand binding: [125I]-PYY
T8 construct: purchased Perkin Elmer Biosignal
T8 sequence (P25929 1-384): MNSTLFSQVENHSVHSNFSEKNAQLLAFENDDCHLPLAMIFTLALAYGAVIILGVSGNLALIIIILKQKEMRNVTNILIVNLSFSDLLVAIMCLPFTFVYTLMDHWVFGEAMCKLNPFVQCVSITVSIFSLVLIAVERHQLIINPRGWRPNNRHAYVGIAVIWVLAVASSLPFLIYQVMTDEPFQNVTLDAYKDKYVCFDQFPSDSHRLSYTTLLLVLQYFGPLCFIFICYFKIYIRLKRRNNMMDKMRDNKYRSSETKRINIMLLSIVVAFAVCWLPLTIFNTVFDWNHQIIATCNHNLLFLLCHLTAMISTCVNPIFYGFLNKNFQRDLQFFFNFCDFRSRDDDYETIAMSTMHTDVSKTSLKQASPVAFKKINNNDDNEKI
Outline: as §1

Human μ-opioid (MOP) = target: T9, Human μ-opioid (MOP) (Homo sapiens, UniProt P35372); assay: Radioligand binding, human μ-opioid (MOP) membranes, FlashPlate, [3H]-Naloxone; settings: compound at 10 μM; for A7: inhibition of radioligand binding: [3H]-Naloxone; for A7 radioligand binding inhibition: human μ-opioid (MOP) membranes
T9 construct: purchased Perkin Elmer Biosignal
Outline: as §1

[2] = target: T10, Human melanin-concentrating hormone (MCH1) (Homo sapiens, UniProt Q99705); assay: Radioligand binding, human melanin-concentrating hormone MCH1 membranes, FlashPlate, [125I]-S36057; settings: compound at 10 μM; for A6 radioligand binding inhibition: human MCH1 membranes
T10 construct: purchased Perkin Elmer Biosignal
Outline: as §1

Human Melanocortin (MC3) = target: T11, Human Melanocortin (MC3) (Homo sapiens, UniProt P41968); assay: Radioligand binding, human melanocortin MC3 membranes, FlashPlate, [125I]-NDP-αMSH; settings: compound at 10 μM; for A3: inhibition of radioligand binding: [125I]-NDP-αMSH; for A3 radioligand binding inhibition: human melanocortin MC3 membranes
T11 construct: purchased Perkin Elmer Biosignal
Outline: as §1

T7 sequence (P33032 whole entry): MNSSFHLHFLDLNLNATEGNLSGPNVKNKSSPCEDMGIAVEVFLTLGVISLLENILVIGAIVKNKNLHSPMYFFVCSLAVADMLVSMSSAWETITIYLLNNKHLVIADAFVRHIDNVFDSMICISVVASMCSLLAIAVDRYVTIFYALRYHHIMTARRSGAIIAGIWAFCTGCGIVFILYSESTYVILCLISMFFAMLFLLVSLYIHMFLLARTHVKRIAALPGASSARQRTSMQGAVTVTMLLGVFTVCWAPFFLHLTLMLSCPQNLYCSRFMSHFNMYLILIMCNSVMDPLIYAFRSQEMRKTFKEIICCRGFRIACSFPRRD
T4 sequence (P41143 whole entry): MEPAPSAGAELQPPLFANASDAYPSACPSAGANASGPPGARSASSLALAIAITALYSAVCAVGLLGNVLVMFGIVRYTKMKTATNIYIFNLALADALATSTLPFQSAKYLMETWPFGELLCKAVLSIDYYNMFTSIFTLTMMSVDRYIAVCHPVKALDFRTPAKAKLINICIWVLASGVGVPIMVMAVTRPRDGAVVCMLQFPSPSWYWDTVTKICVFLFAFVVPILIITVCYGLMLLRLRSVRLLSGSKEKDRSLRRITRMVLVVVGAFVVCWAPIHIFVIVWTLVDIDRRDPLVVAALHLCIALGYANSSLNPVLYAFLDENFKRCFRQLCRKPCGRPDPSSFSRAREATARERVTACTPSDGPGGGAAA
T2 sequence (P41145 whole entry): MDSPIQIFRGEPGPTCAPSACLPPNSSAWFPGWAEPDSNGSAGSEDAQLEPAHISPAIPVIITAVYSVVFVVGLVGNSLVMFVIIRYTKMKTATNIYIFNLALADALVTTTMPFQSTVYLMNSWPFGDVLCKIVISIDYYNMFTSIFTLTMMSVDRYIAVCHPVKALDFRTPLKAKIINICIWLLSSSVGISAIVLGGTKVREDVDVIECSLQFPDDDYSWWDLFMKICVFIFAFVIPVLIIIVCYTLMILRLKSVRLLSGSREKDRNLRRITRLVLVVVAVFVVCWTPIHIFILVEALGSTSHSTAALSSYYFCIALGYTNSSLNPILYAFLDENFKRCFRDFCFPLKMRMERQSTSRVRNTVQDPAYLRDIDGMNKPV
T9 sequence (P35372 whole entry): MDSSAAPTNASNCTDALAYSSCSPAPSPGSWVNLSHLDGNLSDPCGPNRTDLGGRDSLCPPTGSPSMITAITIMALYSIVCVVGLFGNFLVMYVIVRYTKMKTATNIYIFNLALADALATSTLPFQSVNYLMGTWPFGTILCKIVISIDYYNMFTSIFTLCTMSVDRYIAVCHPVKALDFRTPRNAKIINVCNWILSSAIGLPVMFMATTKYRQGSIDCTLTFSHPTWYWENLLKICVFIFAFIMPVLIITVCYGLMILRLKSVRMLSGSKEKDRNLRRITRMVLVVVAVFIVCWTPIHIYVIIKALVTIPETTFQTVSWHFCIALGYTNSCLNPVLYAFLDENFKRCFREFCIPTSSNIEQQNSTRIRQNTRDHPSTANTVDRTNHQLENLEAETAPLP
T11 sequence (P41968 whole entry): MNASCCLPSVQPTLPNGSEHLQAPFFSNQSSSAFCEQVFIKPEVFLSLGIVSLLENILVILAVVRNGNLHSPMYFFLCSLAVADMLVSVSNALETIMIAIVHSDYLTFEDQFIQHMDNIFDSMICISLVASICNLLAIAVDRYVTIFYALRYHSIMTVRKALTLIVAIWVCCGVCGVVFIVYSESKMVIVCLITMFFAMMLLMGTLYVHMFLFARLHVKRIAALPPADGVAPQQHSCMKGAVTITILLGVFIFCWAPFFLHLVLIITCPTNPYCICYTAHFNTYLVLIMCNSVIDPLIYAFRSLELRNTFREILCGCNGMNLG
T10 sequence (Q99705 whole entry): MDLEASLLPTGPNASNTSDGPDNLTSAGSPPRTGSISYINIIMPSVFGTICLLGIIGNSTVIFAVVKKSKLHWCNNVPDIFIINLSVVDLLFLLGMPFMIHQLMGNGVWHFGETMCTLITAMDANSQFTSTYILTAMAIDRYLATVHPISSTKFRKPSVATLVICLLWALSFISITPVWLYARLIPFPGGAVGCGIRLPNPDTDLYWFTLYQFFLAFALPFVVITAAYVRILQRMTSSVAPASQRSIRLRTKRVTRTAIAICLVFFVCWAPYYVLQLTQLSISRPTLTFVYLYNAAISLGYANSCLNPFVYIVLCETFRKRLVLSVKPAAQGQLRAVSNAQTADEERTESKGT
T3 sequence (P32245 whole entry): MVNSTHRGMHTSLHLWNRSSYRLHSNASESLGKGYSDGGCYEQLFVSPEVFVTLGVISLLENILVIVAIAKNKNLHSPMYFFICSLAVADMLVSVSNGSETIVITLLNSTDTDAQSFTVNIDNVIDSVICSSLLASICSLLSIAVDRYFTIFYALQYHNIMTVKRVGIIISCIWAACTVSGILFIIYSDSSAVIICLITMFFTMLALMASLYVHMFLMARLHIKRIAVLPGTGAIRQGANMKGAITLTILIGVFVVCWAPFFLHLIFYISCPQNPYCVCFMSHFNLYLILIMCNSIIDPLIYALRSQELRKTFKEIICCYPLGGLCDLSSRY
T1 sequence (P41146 whole entry): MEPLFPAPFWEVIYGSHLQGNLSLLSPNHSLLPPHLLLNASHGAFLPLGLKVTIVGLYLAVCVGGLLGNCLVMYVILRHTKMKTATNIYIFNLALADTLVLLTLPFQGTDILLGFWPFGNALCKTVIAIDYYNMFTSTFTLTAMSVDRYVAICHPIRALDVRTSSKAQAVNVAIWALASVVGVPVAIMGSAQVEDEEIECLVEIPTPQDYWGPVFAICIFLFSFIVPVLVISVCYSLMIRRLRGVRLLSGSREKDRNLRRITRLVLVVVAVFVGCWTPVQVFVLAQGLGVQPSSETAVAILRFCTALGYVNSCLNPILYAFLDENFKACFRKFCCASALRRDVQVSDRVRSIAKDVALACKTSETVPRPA
T6 sequence (P25103 whole entry): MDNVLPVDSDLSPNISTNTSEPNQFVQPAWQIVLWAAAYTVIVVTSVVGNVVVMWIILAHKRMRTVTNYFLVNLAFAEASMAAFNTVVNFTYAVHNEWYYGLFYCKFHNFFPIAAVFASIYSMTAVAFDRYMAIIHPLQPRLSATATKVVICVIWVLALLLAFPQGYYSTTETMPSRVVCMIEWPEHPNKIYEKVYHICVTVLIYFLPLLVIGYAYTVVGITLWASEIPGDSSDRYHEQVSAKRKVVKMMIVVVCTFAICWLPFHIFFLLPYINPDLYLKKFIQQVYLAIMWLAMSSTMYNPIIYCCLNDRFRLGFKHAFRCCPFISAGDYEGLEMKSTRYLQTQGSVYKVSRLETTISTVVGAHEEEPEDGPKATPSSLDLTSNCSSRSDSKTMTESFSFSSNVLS

Row | SMILES | A10: inhibition of radioligand binding (Human opioid (ORL1); FlashPlate) | A2: inhibition of radioligand binding (Human κ-Opioid (KOP); filtration) | A4: inhibition of radioligand binding (Human Melanocortin (MC4); FlashPlate) | A1: inhibition of radioligand binding (Human δ-opioid (DOP); FlashPlate) | A11: inhibition of radioligand binding (Mouse urotensin (mUR2); FlashPlate) | A8: inhibition of radioligand binding (Human neurokinin (NK1); filtration) | A5: inhibition of radioligand binding (Human melanocortin (MC5); FlashPlate) | A9: inhibition of radioligand binding ([1]; FlashPlate) | A7: inhibition of radioligand binding (Human μ-opioid (MOP); FlashPlate) | A6: inhibition of radioligand binding ([2]; [125I]-S36057, FlashPlate) | A3: inhibition of radioligand binding (Human Melanocortin (MC3); FlashPlate) | A10 radioligand binding inhibition (Human opioid (ORL1); human ORL1 membranes) | A2 radioligand binding inhibition (Human κ-Opioid (KOP)) | A4 radioligand binding inhibition (Human Melanocortin (MC4)) | A1 radioligand binding inhibition (Human δ-opioid (DOP)) | A11 radioligand binding inhibition (Mouse urotensin (mUR2)) | A8 radioligand binding inhibition (Human neurokinin (NK1)) | A5 radioligand binding inhibition (Human melanocortin (MC5)) | A9 radioligand binding inhibition ([1]; human NPY-Y1 membranes) | A7 radioligand binding inhibition (Human μ-opioid (MOP)) | other results
1 | COCC1OC(OCCc2ccccc2)C(NC(=O)CCN)C(OCc2ccc3ccccc3c2)C1O (stereo not shown) [compound 227] | − (“−” indicates less than 50% inhibition at 10 μM) | − (“−” indicates less than 50% inhibition at 10 μM) | − (“−” indicates less than 50% inhibition at 10 μM) | − (“−” indicates less than 50% inhibition at 10 μM) | − (“−” indicates less than 50% inhibition at 10 μM) | + (“+” indicates greater than 50% inhibition at 10 μM) | − (“−” indicates less than 50% inhibition at 10 μM) | − (“−” indicates less than 50% inhibition at 10 μM) | − (“−” indicates less than 50% inhibition at 10 μM) | − (“−” indicates less than 50% inhibition at 10 μM) | − (“−” indicates less than 50% inhibition at 10 μM) | – | – | – | – | – | – | – | – | – | –
2 | COC[C@H]1OC(OCc2ccccc2)[C@H](NC(=O)CNC(=N)N)[C@@H](OCc2ccc(-c3ccccc3)cc2)[C@@H]1O (stereo partly shown) [compound 23] | – | – | – | – | – | – | – | – | – | – | – | − (“−” indicates less than 50% inhibition at 10 μM) | − (“−” indicates less than 50% inhibition at 10 μM) | − (“−” indicates less than 50% inhibition at 10 μM) | − (“−” indicates less than 50% inhibition at 10 μM) | − (“−” indicates less than 50% inhibition at 10 μM) | + (“+” indicates greater than 50% inhibition at 10 μM) | + (“+” indicates greater than 50% inhibition at 10 μM) | − (“−” indicates less than 50% inhibition at 10 μM) | − (“−” indicates less than 50% inhibition at 10 μM) | A6 radioligand binding inhibition [2]: + (“+” indicates greater than 50% inhibition at 10 μM); A3 radioligand binding inhibition (Human Melanocortin (MC3)): − (“−” indicates less than 50% inhibition at 10 μM)
3 | COC[C@H]1OC(OCCc2ccccc2)[C@H](NC(=O)CNC(=N)N)[C@@H](OCc2ccc(-c3ccccc3)cc2)[C@@H]1O (stereo partly shown) [compound 40] | – | – | – | – | – | – | – | – | – | – | – | − (“−” indicates less than 50% inhibition at 10 μM) | − (“−” indicates less than 50% inhibition at 10 μM) | + (“+” indicates greater than 50% inhibition at 10 μM) | − (“−” indicates less than 50% inhibition at 10 μM) | − (“−” indicates less than 50% inhibition at 10 μM) | − (“−” indicates less than 50% inhibition at 10 μM) | + (“+” indicates greater than 50% inhibition at 10 μM) | − (“−” indicates less than 50% inhibition at 10 μM) | − (“−” indicates less than 50% inhibition at 10 μM) | A6 radioligand binding inhibition [2]: + (“+” indicates greater than 50% inhibition at 10 μM); A3 radioligand binding inhibition (Human Melanocortin (MC3)): + (“+” indicates greater than 50% inhibition at 10 μM)
4 | NCCC(=O)NC1C(OCc2ccc3ccccc3c2)OC(COCc2ccc3ccccc3c2)C(O)C1OCc1ccc(Cl)cc1 (stereo not shown) [compound 381] | – | – | – | – | – | – | – | – | – | – | – | – | – | – | – | – | – | – | – | – | A10: inhibition of radioligand binding (Human opioid (ORL1); human ORL1 membranes): − (“−” indicates less than 50% inhibition at 10 μM); A2: inhibition of radioligand binding (Human κ-Opioid (KOP); human KOP membranes): − (“−” indicates less than 50% inhibition at 10 μM); A4: inhibition of radioligand binding (Human Melanocortin (MC4); human MC4 membranes): + (“+” indicates greater than 50% inhibition at 10 μM); A1: inhibition of radioligand binding (Human δ-opioid (DOP); human DOP membranes): − (“−” indicates less than 50% inhibition at 10 μM); A11: inhibition of radioligand binding (Mouse urotensin (mUR2); mouse mUR2 membranes): − (“−” indicates less than 50% inhibition at 10 μM); A8: inhibition of radioligand binding (Human neurokinin (NK1); human NK1 membranes): + (“+” indicates greater than 50% inhibition at 10 μM); A5: inhibition of radioligand binding (Human melanocortin (MC5); human MC5 membranes): + (“+” indicates greater than 50% inhibition at 10 μM); A9: inhibition of radioligand binding ([1]; human NPY-Y1 membranes): − (“−” indicates less than 50% inhibition at 10 μM); A7: inhibition of radioligand binding (Human μ-opioid (MOP); human MOP membranes): − (“−” indicates less than 50% inhibition at 10 μM); A6: inhibition of radioligand binding ([2]; [125I]-S36057, human MCH1 membranes): − (“−” indicates less than 50% inhibition at 10 μM); A3: inhibition of radioligand binding (Human Melanocortin (MC3); human MC3 membranes): + (“+” indicates greater than 50% inhibition at 10 μM)
5 | CSC1O[C@H](COCc2ccc3ccccc3c2)[C@@H](O)[C@@H](OCc2ccc(Cl)cc2)[C@H]1NC(=O)CN (stereo partly shown) [compound 280] | − (“−” indicates less than 50% inhibition at 10 μM) | − (“−” indicates less than 50% inhibition at 10 μM) | − (“−” indicates less than 50% inhibition at 10 μM) | − (“−” indicates less than 50% inhibition at 10 μM) | − (“−” indicates less than 50% inhibition at 10 μM) | + (“+” indicates greater than 50% inhibition at 10 μM) | − (“−” indicates less than 50% inhibition at 10 μM) | − (“−” indicates less than 50% inhibition at 10 μM) | − (“−” indicates less than 50% inhibition at 10 μM) | − (“−” indicates less than 50% inhibition at 10 μM) | − (“−” indicates less than 50% inhibition at 10 μM) | – | – | – | – | – | – | – | – | – | –
